Measured values taken from US6451618B2, “Test for detecting substances which alter the conformational structure of zinc fingers” (priority 1997, dated 2002).
Read-outs that look alike come from different tables or passages of the source.

Tests used:
TFIIIA [1] = target: T1, TFIIIA (Xenopus laevis, UniProt P03001); format: binding; parameters: Immature ovarian tissue was dissected from 4-5 cm female X. laevis frogs; from tissue; host or cells: immature ovarian tissue (oocytes) of Xenopus laevis; 7S particles, 5S RNA removed with RNase A; details: for TFIIIA zinc finger affected by xenobiotic: general statement; for concentration at which TFIIIA binding to the 5S RNA gene is inhibited: loss of DNase I protection, nucleotides +43 to +96, TFIIIA preincubated with metal; for inhibition of TFIIIA-5S RNA gene interaction: 10 μM, data not shown; for concentration giving complete inhibition of TFIIIA binding: complete loss of DNase I protection and hypersensitivity; for reversibility of inhibition of TFIIIA binding: not overcome by added zinc ions
Procedure: Inhibition of TFIIIA binding to the 5S ribosomal RNA gene was assayed by the DNase I protection method. In this assay, TFIIIA isolated from frogs, or as a recombinant protein, was incubated for a short period of time with a radioactively labeled double-stranded DNA fragment containing the 5S ribosomal RNA gene sequence (120 base-pairs in length). In TFIIIA's role in regulating ribosome synthesis, the protein birds specifically and tightly to this 5S gene sequence. When this occurs, the bound protein protects a large region of the 5S RNA gene from DNase I digestion. DNase I normally degrades the 5S gene and in the process generates a series of differently sized DNA fragments which can be resolved by electrophoresis. TFIIIA binding protects a DNA region comprising approximately 53 base pairs from DNase I degradation.
Cadmium and aluminum inhibition of TFIIIA binding was ascertained by observing the loss of this protected region from 5S gene nucleotides (+43 to +96).
The end-labeled fragment was ethanol precipitated, redigested with BamHI and the smaller fragment was purified by PAGE. Specific activity of the fragment was determined by absorbance at 260 nm and Cerenkov counting. To examine the effects of various metals on the TFIIIA-5S RNA gene interaction TFIIIA (10 nM) was incubated with the various metals (chloride salts of all metals were ultrapure grade and purchased from Aldrich; concentrations are indicated in the figure legends) in 20 mM Tris-HCl, pH 7.6, 70 mM NH4Cl, 7 mM MgCl2, 0.4 mM DTT and 0.1% NP-40 for 10 min prior to addition of the DNA fragment containing the end-labeled 5S RNA gene (1 nM). After addition of DNA the reaction (20 μl ) was incubated at room temperature for an additional 15 min. The reactions were then incubated for an additional 1 min in DNase I (2 μg/ml final concentration) and digestion was terminated by addition of 100 μl stop buffer (20 mM Tris-HCl, pH 7.6, 1 mM EDTA, 0.1% SDS, 30 μg/ml sonicated salmon sperm DNA). […] Gel autoradiography was performed overnight at −70° C. with Kodak XAR-5 film and a Dupont Cronex intensifying screen.
Target sequence in this assay (P03001 23-366): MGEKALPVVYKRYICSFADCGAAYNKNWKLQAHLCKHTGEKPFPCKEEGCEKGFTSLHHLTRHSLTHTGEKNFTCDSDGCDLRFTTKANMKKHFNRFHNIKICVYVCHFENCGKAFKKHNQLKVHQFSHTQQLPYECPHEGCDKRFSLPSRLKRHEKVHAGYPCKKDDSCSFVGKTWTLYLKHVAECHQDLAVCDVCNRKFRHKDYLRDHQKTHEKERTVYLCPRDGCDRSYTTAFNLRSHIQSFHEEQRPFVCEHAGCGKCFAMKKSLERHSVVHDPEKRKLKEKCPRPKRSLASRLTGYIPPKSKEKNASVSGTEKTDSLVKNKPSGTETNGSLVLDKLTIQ

TFIIIA [2] = target: T1, TFIIIA; details: excitation 360 nanometers
Procedure: Zinc is then removed from TFIIIA (- ZINC sample) by incubation with the zinc chelator, ethylenediamine tetraacetic acid (EDTA). Relative emission fluorescent intensity spectra of the TFIIIA-bound AEDANS probe are recorded using an excitation wavelength of 360 nanometers.
Target sequence in this assay (P03001 23-366 limits assumed): as the sequence (P03001 23-366) above

estrogen receptor (ER) [3] = details: hormone-bound estrogen receptor; cited from earlier work
TFIIIA [4] = target: T1, TFIIIA; assay: TFIIIA-dependent DNA renaturation assay; format: biochemical; parameters: Immature ovarian tissue was dissected from 4-5 cm female X. laevis frogs; from tissue; host or cells: immature ovarian tissue (oocytes) of Xenopus laevis; 7S particles, 5S RNA removed with RNase A
Target sequence in this assay (P03001 23-366): as above
Procedure: DNA migration in the Tris-phosphate agarose gel electrophoresis system used in the DNA renaturation assay is sensitive to some types of DNA structural changes. This assay is useful in this study because it can detect structural changes in the nanomolar DNA concentration range.
DNA renaturation (hybridization of complementary single-stranded DNA) was assayed by binding 20 nM Xenopus TFIIIA to 2 nM heat-denatured ^32P labeled 5S gene DNA for 15 min. Reactions are terminated by detergent and electrophoresed on an agarose gel which resolves the slower migrating single-stranded DNA (s.s.) from the faster migrating double-stranded DNA (d.s.) DNA bands are visualized by autoradiography. […] DNA migration in the absence and presence of cadmium.
TFIIIA isolation, ^32P-end-labeling of the 5S RNA gene, denaturation and renaturation reactions, Tris-phosphate agarose gel electrophoresis and autoradiography were performed as described above in the methodology section herein. […]

estrogen receptor (ER) [5] = details: cited from earlier work

## [Cl][Pb][Cl] [PbCl2]
TFIIIA [1]
  TFIIIA zinc finger affected by xenobiotic: affected
  concentration at which TFIIIA binding to the 5S RNA gene is inhibited: ≥ 10 µM

## O=[Se]([O-])[O-].[Na+].[Na+] [Na2SeO3]
TFIIIA [1]
  TFIIIA zinc finger affected by xenobiotic: affected
  concentration at which TFIIIA binding to the 5S RNA gene is inhibited: ≥ 25 µM

## [Cl-].[Cl-].[Mg+2] [Mg^2+]
TFIIIA [1]
  inhibition of TFIIIA-5S RNA gene interaction: non-inhibitory

## O=C(O)CN(CCN(CC(=O)O)CC(=O)O)CC(=O)O [EDTA, ethylenediamine tetraacetic acid]
TFIIIA [2]; blue shift from 485 nanometers
  emission wavelength after zinc removal: 478 nanometers
TFIIIA [2]; zinc removed from TFIIIA by EDTA
  increase of emission fluorescence intensity: 25%

## [Cl-].[Cs+] [Cs^2+]
TFIIIA [1]
  inhibition of TFIIIA-5S RNA gene interaction: non-inhibitory
  TFIIIA zinc finger affected by xenobiotic: not

## [AsH3] [Arsenic, NaH2AsO4]
TFIIIA [1]; preincubated with 0.1, 0.5 or 1.0 mM NaH2AsO4
  inhibition of TFIIIA zinc finger binding to DNA: does not inhibit

## [Cl][Mn][Cl] [Mn^2+]
TFIIIA [1]
  inhibition of TFIIIA-5S RNA gene interaction: non-inhibitory
  TFIIIA zinc finger affected by xenobiotic: not

## [Cl][Cd][Cl] [Cd^2+, CdCl2]
TFIIIA [1]; 0.1 μM Cd2+ for TFIIIA
  in vitro inhibitory concentration relative to serum concentration in moderate to heavy smokers: approximately 5 fold
TFIIIA [1]; at 0.1 μM Cd2+
  inhibitory molecules of metal ion per TFIIIA molecule: < 10 molecules per TFIIIA molecule
TFIIIA [1]
  concentration giving complete inhibition of TFIIIA binding: 0.25 µM
  TFIIIA zinc finger affected by xenobiotic: affected
  concentration at which TFIIIA binding to the 5S RNA gene is inhibited: 0.1 µM
  reversibility of inhibition of TFIIIA binding: irreversible
Estrogen receptor (ER) [3]
  concentration inhibiting DNA binding by activated receptors: 1 mM
TFIIIA [4]; TFIIIA 10, 20 or 30 nM preincubated with 1 μM CdCl2
  inhibition of TFIIIA-dependent DNA renaturation: inhibition of DNA renaturation
Estrogen receptor (ER) [5]
  concentration inhibiting initial binding of hormone to receptor: 0.1 mM

## HgCl2 [Mercury]
TFIIIA [1]
  TFIIIA zinc finger affected by xenobiotic: not
TFIIIA [1]; preincubated in 5, 10, 15, 20 μM HgCl2
  inhibition of TFIIIA zinc finger binding to DNA: does not inhibit

## [Cl][Al]([Cl])[Cl] [Al^3+, AlCl3]
TFIIIA [1]; Al3+ versus Cd2+
  inhibitory concentration relative to that for Cd2+: about 50 fold
TFIIIA [1]; FIG. lane 3
  concentration giving slight inhibition of TFIIIA binding: 1 µM
TFIIIA [1]
  concentration giving complete inhibition of TFIIIA binding: 5 to 7 µM
  TFIIIA zinc finger affected by xenobiotic: affected
  concentration at which TFIIIA binding to the 5S RNA gene is inhibited: 3 µM
  reversibility of inhibition of TFIIIA binding: irreversible
TFIIIA [4]; TFIIIA preincubated with 50 μM AlCl3 (panel B)
  inhibition of TFIIIA-dependent DNA renaturation: Inhibition of TFIIIA-dependent renaturation
